Where a name gives a salt, the structure may show the parent alone. Read-outs that look alike come from different tables or passages of the source.
Assays:
[1] = Solubility analysis in 0.1 M HCl and phosphate buffer (pH 4.5 and pH 6.8); assay type: physicochemical
Text: The solubility of Pazopanib HCl Form F and Pazopanib HCl Form A in 0.1 M HCl and phosphate buffer (pH4.5 and pH6.8) was examined in the present analysis.

[2] = Stability / storage (statement only, no method described); assay type: physicochemical; settings: no data given

SMILES	Solubility (descriptive term) ([1]; 0.1M HCl)	Solubility compared with Pazopanib HCl Form A ([1]; 0.1M HCl)	solubility ([1]; 0.1M HCl, hydrochloride)	Solubility (descriptive term) ([1]; Phosphate buffer, pH 4.5)	Solubility (descriptive term) ([1]; Phosphate buffer, pH 6.8)	Stability [2]	solubility ([1]; 0.1 M HCl, simulated gastric fluid, thermodynamic from solid, 0.1M HCl, read-out: Solubility)
Cc1ccc(Nc2nccc(N(C)c3ccc4c(C)n(C)nc4c3)n2)cc1S(N)(=O)=O [Pazopanib HCl Form F, Pazopanib hydrochloride]	Very slightly soluble	better solubility in 0.1 M HCl than Pazopanib HCl Form A	669 µg/mL	Practically insoluble	Practically insoluble	better stability, and can be stored for a long time	
Cc1ccc(Nc2nccc(N(C)c3ccc4c(C)n(C)nc4c3)n2)cc1S(N)(=O)=O [Pazopanib HCl Form A, Pazopanib hydrochloride]	Very slightly soluble			Practically insoluble	Practically insoluble		584 µg/mL

From patent US10626110B2, “Polymorph of pazopanib hydrochloride and preparation process thereof” (FORMOSA LABORATORIES, INC., priority 2018, dated 2020)
